This note sets out measurements from US10611789B2, “Crystalline form A of rebaudioside D, and preparation method and application therefor” (ZHUCHENG HAOTIAN PHARM CO., LTD, priority 2015, dated 2020).

In brackets after ≈: the same amount, converted by molar mass.

Format in all cases: physicochemical
A short description of series [1]: HPLC chemical stability on storage. Particulars: after six months of storage (25° C., relative humidity 60%). The protocol: HPLC analysis: a 1260 infinity liquid chromatograph from American Agilent Technologies was used for determination. Preparation method for the sample solution: 25-50 mg of the Rebaudioside D sample was accurately weighed, and placed in a 25 ml of volumetric flask, and then a solution of water-acetonitrile (7:3, v/v) was added for dissolution and the volume was set to the scale. The fomulation method for sodium phosphate buffer (specification: 10 mmol/L, pH: 2.6): 2.76 g of sodium dihydrogen phosphate was dissolved in 2 L of water, phosphoric acid was added and the pH was adjusted to 2.6. Chromatographic column: Phenomenex's Luna 5μ C18 (2) 100 A column. Injection volume: 5 μl. Flow rate: 1.0 mL/min. Column temperature: 40° C. Detector: 210 nm of UV detection. Mobile phase: acetonitrile and sodium phosphate buffer (specification: 10 mmol/L, pH: 2.6) at a ratio of 32:68.

The nature of series [2]: water solubility of crystal form A.
The nature of series [3]: dynamic vapor sorption (DVS) analysis. The note with it: 25° C. The protocol: DVS analysis: a DVS Intrinsic Dynamic Moisture Adsorption Device of UK SMS Instrument Company was used for detection. The measuring temperature: 25° C.; the relative humidity: 0-95%.
Series [4] can be described thus: XRPD crystal form stability on storage. The protocol:
XRPD analysis: a Bruker D8 advance diffractometer from German Brook Instruments Co. LTD was used for detection at room temperature, using Cu-Kα ray (λ=1.5418 Å) with 2θ angle scanning from 3° to 40° at a scanning speed of 0.2°/second.
The crystal form A of Rebaudioside D prepared in the above examples was subjected to XRPD analysis under the conditions of 25° C. and RH≤30%. The analysis results are shown in FIG. 6, and it can be seen from FIG. 6 that the crystal form thereof is unchanged and has a good stability.
The crystal form A of Rebaudioside D prepared in the above examples was stored for 6 months under the conditions of 25° C. and RH≤60%. The analysis results are shown in FIG. 7, and it can be seen from FIG. 7 that the crystal form thereof is unchanged and has a good stability.

The solubility is the concentration that dissolves in the medium under given conditions. High values mean a readily soluble substance, low ones a poorly soluble substance.

As to `C=C1C[C@@]23CCC4[C@@](C)(CCC[C@@]4(C)C(=O)O[C@@H]4OC(CO)[C@@H](O)C(O)C4OC4OC(CO)[C@@H](O)C(O)C4O)C2CC[C@]1(OC1OC(CO)C(O)C(OC2OC(CO)C(O)C(O)C2O)C1OC1OC(CO)C(O)C(O)C1O)C3` (stereo partly drawn) [crystal form A of Rebaudioside D, Rebaudioside D], the “variation of HPLC purity compared with the raw material” value in series [1] is recorded as “less than 0.5%”. Moreover, in series [2], the solubility was around 600 µg/mL (≈ 531 µM). In addition, the “mass percentage of absorbed moisture” value in series [3] (within a relative humidity of 0-40%) is listed as 0-3.4%; in series [3] (within a relative humidity of 40-100%) it was 3.4-7.1%. Besides, the “crystal form by XRPD” value in series [4] (25° C. and RH≤30%) was “unchanged”. In addition, the “crystal form by XRPD after storage” value in series [4] (stored for 6 months, 25° C. and RH≤60%) is listed as “unchanged”.
